Measured values reported in paper PMC6348381, “Discovery of an MLLT1/3 YEATS Domain Chemical Probe” (Angewandte Chemie (International Ed. in English), 2018).

Experiments:
Format in all cases: binding
BAZ2B = target: T1, BAZ2B (Homo sapiens, UniProt Q9UIF8); test: Thermal shift assay, BAZ2B
T1 construct: purchased in-house (SGC bromodomain thermal shift / AlphaScreen panel)
Description: (§1) II.VII Thermal Shift Assay[6]
(§2) Thermal melting experiments were carried out using an Mx3005p Real Time PCR machine (Stratagene). Proteins were buffered in 10 mM HEPES pH 7.5, 500 mM NaCl and assayed in a 96-well plate at a final concentration of 2 μM in 20 μL volume. Compounds were added at a final concentration of 50 μM. SYPRO Orange (Molecular Probes) was added as a fluorescence probe at a dilution of 1:1000. Excitation and emission filters for the SYPRO-Orange dye were set to 465 nm and 590 nm, respectively. The temperature was raised with a step of 3 °C per minute from 25 °C to 96 °C and fluorescence readings were taken at each interval. The unfolding curves were fitted using the Boltzmann equation to determine the middle point of the transition.

BRD2(2) = target: T2, BRD2(2) (Homo sapiens, UniProt P25440); test: Thermal shift assay, BRD2(2)
T2 construct: BRD2(2); purchased in-house (SGC bromodomain thermal shift / AlphaScreen panel)
T2 sequence (P25440 344-455 limits assumed): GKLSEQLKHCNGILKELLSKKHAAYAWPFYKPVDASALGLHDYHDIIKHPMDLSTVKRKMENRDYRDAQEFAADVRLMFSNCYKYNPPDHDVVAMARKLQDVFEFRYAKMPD

BRD3(2) = target: T3, BRD3(2) (Homo sapiens, UniProt Q15059); test: Thermal shift assay, BRD3(2)
T3 construct: BRD3(2); purchased in-house (SGC bromodomain thermal shift / AlphaScreen panel)
T3 sequence (Q15059 306-416 limits assumed): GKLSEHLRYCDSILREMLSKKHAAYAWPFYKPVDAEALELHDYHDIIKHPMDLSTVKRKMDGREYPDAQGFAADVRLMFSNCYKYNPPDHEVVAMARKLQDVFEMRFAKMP
Description: as §1, §2

BRD4(2) = target: T4, BRD4(2) (Homo sapiens, UniProt O60885); test: Thermal shift assay, BRD4(2)
T4 construct: BRD4(2); purchased in-house (SGC bromodomain thermal shift / AlphaScreen panel)
Description: as §1, §2

BRD9 = target: T5, BRD9 (Homo sapiens, UniProt Q9H8M2); test: Thermal shift assay, BRD9
T5 construct: purchased in-house (SGC bromodomain thermal shift / AlphaScreen panel)
T5 sequence (Q9H8M2 1-597): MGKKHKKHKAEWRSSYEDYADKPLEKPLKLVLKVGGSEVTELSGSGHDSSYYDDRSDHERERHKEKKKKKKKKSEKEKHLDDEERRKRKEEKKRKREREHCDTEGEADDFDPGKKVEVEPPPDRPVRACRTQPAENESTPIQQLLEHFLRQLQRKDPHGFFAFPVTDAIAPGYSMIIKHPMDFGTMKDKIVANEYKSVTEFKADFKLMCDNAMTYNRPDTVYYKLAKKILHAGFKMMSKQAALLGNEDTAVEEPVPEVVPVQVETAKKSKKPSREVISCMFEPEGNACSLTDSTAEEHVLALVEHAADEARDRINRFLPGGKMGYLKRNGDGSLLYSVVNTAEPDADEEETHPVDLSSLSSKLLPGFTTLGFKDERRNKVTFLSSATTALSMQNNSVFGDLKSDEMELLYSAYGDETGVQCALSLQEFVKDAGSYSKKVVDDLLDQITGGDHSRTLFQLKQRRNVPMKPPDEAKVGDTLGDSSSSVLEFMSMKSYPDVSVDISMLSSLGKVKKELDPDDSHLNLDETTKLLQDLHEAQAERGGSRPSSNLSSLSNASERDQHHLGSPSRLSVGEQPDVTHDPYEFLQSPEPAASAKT
Description: as §1, §2

CREBBP = target: T6, CREBBP (Homo sapiens, UniProt Q92793); test: Thermal shift assay, CREBBP
T6 construct: purchased in-house (SGC bromodomain thermal shift / AlphaScreen panel)
T6 sequence (Q92793 whole entry): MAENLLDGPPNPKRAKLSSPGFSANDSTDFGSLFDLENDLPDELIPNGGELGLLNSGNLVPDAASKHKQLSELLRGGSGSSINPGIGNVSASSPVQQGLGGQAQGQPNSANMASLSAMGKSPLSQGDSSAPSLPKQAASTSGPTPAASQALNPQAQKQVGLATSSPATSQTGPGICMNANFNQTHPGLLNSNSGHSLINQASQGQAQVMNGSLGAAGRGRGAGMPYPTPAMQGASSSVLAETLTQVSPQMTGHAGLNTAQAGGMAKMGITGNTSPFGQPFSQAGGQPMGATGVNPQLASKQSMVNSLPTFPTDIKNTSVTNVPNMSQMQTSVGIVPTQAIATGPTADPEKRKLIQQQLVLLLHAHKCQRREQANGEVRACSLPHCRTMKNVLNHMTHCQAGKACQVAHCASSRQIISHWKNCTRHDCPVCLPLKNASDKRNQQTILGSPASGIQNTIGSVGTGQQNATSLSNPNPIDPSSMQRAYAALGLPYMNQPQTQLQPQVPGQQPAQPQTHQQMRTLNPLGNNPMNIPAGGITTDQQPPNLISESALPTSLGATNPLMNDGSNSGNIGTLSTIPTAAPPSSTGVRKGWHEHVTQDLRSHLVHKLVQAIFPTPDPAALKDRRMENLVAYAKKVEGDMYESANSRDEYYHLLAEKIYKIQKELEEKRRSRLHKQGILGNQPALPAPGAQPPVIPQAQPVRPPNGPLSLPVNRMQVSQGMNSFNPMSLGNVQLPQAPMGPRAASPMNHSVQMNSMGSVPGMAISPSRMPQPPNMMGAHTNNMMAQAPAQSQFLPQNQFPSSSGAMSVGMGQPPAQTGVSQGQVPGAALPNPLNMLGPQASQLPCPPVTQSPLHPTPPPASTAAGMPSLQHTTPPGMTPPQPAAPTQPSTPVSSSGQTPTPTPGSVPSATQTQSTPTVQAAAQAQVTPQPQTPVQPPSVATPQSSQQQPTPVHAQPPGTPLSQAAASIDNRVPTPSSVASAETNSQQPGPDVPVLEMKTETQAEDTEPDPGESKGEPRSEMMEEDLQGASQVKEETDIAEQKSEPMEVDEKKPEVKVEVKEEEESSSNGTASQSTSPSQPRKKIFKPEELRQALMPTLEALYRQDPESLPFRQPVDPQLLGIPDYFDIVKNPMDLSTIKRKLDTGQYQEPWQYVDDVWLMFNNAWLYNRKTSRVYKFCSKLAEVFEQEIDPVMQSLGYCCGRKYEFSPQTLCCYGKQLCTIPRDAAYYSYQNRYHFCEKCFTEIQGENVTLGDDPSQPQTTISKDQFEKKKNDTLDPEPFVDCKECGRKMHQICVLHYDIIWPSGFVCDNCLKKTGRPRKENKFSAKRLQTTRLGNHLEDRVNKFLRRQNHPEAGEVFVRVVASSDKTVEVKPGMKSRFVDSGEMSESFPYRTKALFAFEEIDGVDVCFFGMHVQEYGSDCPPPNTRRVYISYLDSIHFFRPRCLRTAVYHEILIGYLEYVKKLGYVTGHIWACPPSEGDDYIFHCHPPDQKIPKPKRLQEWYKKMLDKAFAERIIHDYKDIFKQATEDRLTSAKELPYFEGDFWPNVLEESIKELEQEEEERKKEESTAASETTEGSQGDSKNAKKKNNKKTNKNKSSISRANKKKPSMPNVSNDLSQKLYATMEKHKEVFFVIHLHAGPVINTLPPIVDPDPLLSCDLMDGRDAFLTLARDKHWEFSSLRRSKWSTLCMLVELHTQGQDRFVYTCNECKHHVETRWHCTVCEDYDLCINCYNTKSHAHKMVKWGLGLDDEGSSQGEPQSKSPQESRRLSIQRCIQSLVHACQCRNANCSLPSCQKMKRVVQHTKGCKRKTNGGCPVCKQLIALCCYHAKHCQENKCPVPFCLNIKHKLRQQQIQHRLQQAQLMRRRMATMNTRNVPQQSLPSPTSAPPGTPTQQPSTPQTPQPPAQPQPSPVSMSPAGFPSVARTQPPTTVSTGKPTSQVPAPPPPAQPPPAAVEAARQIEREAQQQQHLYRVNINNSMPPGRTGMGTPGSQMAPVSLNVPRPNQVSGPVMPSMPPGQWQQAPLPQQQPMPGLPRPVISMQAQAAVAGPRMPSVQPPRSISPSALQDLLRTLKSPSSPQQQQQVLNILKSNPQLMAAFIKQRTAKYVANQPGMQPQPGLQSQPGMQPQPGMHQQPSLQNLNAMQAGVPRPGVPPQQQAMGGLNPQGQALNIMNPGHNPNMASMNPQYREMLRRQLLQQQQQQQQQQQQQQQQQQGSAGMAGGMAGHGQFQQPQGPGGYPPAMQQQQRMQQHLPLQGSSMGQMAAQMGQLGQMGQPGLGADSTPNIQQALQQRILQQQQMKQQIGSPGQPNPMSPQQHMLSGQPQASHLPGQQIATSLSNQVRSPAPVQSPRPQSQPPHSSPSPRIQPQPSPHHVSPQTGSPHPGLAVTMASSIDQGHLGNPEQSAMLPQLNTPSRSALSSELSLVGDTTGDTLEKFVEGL

LOC93349 = target: T7, LOC93349 (Homo sapiens, UniProt Q9H930); test: Thermal shift assay, LOC93349
T7 construct: purchased in-house (SGC bromodomain thermal shift / AlphaScreen panel)
T7 sequence (Q9H930 whole entry): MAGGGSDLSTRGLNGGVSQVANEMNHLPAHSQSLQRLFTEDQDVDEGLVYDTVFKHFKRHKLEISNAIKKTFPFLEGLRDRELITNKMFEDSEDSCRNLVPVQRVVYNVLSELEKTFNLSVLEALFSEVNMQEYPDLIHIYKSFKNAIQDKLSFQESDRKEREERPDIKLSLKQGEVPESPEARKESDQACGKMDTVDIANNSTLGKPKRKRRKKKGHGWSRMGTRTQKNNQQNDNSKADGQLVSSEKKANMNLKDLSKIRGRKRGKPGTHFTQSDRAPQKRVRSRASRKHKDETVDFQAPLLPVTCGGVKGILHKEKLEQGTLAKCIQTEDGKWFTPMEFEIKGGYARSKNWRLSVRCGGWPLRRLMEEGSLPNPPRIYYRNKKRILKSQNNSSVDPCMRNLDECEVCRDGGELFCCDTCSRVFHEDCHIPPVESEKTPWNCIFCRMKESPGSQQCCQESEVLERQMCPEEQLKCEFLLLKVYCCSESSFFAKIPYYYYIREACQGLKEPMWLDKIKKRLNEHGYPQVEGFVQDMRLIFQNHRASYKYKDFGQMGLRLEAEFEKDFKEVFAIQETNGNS
Description: as §1, §2

PHIP(2) = target: T8, PHIP(2) (Homo sapiens, UniProt Q8WWQ0); test: Thermal shift assay, PHIP(2)
T8 construct: PHIP(2); purchased in-house (SGC bromodomain thermal shift / AlphaScreen panel)
Description: as §1, §2

SMARCA4 = target: T9, SMARCA4 (Homo sapiens, UniProt P51532); test: Thermal shift assay, SMARCA4
T9 construct: purchased in-house (SGC bromodomain thermal shift / AlphaScreen panel)
T9 sequence (P51532 whole entry): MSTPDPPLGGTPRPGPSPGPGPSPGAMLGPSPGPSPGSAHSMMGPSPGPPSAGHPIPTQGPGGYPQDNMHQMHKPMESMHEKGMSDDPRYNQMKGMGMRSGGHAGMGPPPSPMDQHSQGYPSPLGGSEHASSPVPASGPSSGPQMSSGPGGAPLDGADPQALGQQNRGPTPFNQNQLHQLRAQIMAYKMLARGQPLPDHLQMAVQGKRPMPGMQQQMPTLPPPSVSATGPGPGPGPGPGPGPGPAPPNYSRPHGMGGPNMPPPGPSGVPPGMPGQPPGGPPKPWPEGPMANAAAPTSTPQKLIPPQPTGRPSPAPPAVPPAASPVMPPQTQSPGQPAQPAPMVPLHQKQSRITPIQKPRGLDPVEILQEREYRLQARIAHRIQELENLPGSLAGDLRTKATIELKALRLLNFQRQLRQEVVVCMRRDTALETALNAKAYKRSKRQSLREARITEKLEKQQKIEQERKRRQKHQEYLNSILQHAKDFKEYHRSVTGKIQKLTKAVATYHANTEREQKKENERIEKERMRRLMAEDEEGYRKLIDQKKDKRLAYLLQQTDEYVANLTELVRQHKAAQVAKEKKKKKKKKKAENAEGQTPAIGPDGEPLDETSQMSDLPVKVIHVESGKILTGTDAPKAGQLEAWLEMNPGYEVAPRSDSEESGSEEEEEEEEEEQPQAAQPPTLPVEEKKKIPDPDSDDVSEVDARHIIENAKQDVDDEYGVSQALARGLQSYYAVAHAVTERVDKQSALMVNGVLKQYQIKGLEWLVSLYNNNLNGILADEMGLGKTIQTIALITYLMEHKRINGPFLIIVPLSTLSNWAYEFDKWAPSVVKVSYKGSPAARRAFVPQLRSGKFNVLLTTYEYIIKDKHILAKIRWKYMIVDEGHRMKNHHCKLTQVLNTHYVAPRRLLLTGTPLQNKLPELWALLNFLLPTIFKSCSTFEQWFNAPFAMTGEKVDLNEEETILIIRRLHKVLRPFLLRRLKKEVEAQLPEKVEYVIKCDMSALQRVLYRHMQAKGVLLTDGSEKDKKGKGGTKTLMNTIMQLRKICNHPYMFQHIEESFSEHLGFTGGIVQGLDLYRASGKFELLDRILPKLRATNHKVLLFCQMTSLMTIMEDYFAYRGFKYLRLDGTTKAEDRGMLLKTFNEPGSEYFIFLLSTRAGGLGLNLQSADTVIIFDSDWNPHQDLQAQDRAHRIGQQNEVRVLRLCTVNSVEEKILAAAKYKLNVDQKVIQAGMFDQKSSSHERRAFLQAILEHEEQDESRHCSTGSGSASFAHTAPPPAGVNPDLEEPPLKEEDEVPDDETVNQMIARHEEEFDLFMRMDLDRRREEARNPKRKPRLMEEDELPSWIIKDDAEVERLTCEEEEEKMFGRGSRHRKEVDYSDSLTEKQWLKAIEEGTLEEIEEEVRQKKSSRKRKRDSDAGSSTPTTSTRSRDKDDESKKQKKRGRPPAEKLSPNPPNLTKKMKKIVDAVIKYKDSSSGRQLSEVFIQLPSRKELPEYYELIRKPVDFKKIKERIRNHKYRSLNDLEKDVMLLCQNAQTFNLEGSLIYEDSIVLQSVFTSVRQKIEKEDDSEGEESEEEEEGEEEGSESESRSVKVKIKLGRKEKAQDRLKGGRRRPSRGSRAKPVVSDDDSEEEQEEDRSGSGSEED

TAF1(2) = target: T10, TAF1(2) (Homo sapiens, UniProt P21675); test: Thermal shift assay, TAF1(2)
T10 construct: Bromosporine with recombinant human bromodomain proteins; made in house
T10 sequence (P21675 1519-1628 limits assumed): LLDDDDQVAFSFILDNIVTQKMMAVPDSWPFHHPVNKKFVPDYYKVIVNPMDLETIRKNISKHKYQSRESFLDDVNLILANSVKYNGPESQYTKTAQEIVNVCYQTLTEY
Description: as §1, §2

TIF1a = target: T11, TIF1a (Homo sapiens, UniProt O15164); test: Thermal shift assay, TIF1a
T11 construct: Bromosporine with recombinant human bromodomain proteins; made in house
T11 sequence (O15164 899-1004 limits assumed): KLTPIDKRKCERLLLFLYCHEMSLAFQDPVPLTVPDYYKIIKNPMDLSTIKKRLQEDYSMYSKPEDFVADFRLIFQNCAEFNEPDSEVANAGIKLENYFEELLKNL
Description: as §1, §2

FALZ = FALZ (Homo sapiens, UniProt Q12830); test: Thermal shift assay, FALZ; parameters: purchased in-house (SGC bromodomain thermal shift / AlphaScreen panel)
Description: as §1, §2

Row | Structure (SMILES) | Thermal stabilisation, BAZ2B (BAZ2B; 50 μM compound) | Thermal stabilisation, BRD2(2) (BRD2(2); 50 μM compound) | Thermal stabilisation, BRD3(2) (BRD3(2); 50 μM compound) | Thermal stabilisation, BRD4(2) (BRD4(2); 50 μM compound) | Thermal stabilisation, BRD9 (BRD9; 50 μM compound) | Thermal stabilisation, CREBBP (CREBBP; 50 μM compound) | Thermal stabilisation, LOC93349 (LOC93349; 50 μM compound) | Thermal stabilisation, PHIP(2) (PHIP(2); 50 μM compound) | Thermal stabilisation, SMARCA4 (SMARCA4; 50 μM compound) | Thermal stabilisation, TAF1(2) (TAF1(2); 50 μM compound) | Thermal stabilisation, TIF1a (TIF1a; 50 μM compound) | Thermal stabilisation, FALZ (FALZ; 50 μM compound) | also measured
1 | COC(=O)c1ccc(C(=O)Nc2ccc3[nH]c(CN4CCCCC4)nc3c2)cc1 [Compound 1] | 0.57 | 0.55 | 0.675 | 0.715 | -0.915 | 0.675 | 0.035 | -0.595 | 0.135 | -0.22 | -1.13 | 0.235 | –
2 | C[C@H]1CCCN1Cc1nc2cc(NC(=O)c3ccc4c(cnn4C)c3)ccc2[nH]1 [Compound 92] | 0.155 | 0.19 | -0.1 | 0.1 | -1.445 | -0.075 | -1.05 | -1.48 | 0.035 | -0.21 | -1.04 | -0.315 | –
3 | CCOC(=O)Nc1cc(-c2ccc(C)c(NS(C)(=O)=O)c2)nn2c(C)nnc12 [Bromosporine, reference compound] | – | – | – | – | – | – | – | – | – | – | – | – | Thermal stabilisation, BAZ2B (BAZ2B; 10 µM compound concentration): 1.385; Thermal stabilisation, BRD2(2) (BRD2(2); 10 µM compound concentration): 5.8; Thermal stabilisation, BRD3(2) (BRD3(2); 10 µM compound concentration): 6.56; Thermal stabilisation, BRD4(2) (BRD4(2); 10 µM compound concentration): 6.575; Thermal stabilisation, BRD9 (BRD9; 10 µM compound concentration): 7.145; Thermal stabilisation, CREBBP (CREBBP; 10 µM compound concentration): 3.31; Thermal stabilisation, LOC93349 (LOC93349; 10 µM compound concentration): 2.385; Thermal stabilisation, PHIP(2) (PHIP(2); 10 µM compound concentration): -2.61; Thermal stabilisation, SMARCA4 (SMARCA4; 10 µM compound concentration): 0.12; Thermal stabilisation, TAF1(2) (TAF1(2); 10 µM compound concentration): 5.03; Thermal stabilisation, TIF1a (TIF1a; 10 µM compound concentration): 0.16; Thermal stabilisation, FALZ (FALZ; 10 µM compound concentration): 1.5
